# Key:
# field bindweed = test: Test C postemergence field bindweed; type: in vivo, Convolvulus arvensis; conditions: 0 to 100 scale, 0 no effect, 100 complete control
# Method: (§1) Compounds evaluated in this test were formulated in a non-phytotoxic solvent mixture which included a surfactant and applied to plants that were grown for various periods of time before treatment (postemergence application). A mixture of sandy loam soil and greenhouse potting mix in a 60:40 ratio was used for the postemergence test.
# Plantings of these crops and weed species were adjusted to produce plants of appropriate size for the postemergence test. All plant species were grown using normal greenhouse practices. Crop and weed species include arrowleaf sida (Sida rhombifolia), barnyardgrass (Echinochloa crus-galli), cocklebur (Xanthium strumarium), common ragweed (Ambrosia elatior), corn (Zea mays), cotton (Gossypium hirsutum), eastern black nightshade (Solanum ptycanthum), fall panicum (Panicum dichotomiflorum), field bindweed (Convolvulus arvensis), giant foxtail (Setaria faberii), hairy beggarticks (Bidens pilosa), ivyleaf morningglory (Ipomoea hederacea), johnsongrass (Sorghum halepense), ladysthumb smartweed (Polygonum persicaria), lambsquarters (Chenopodium album), large crabgrass (Digitaria sanguinalis), purple nutsedge (Cyperus rotundus), redroot pigweed (Amaranthus retroflexus), soybean (Glycine max), surinam grass (Brachiaria decumbens), velvetleaf (Abutilon theophrasti) and wild poinsettia (Euphorbia heterophylla).
# Treated plants and untreated controls were maintained in a greenhouse for approximately 14, to 21 days, after which all treated plants were compared to untreated controls and visually evaluated. Plant response ratings, summarized in Table C, were based upon a 0 to 100 scale where 0 was no effect and 100 was complete control. A dash response (−) means no test result.
# johnsongrass = test: Test C postemergence johnsongrass; type: in vivo, Sorghum halepense; conditions: 0 to 100 scale, 0 no effect, 100 complete control
# Outline: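 Postemergence spray; formulation = non-phytotoxic solvent + surfactant; soil 60:40 sandy loam:greenhouse potting mix; greenhouse, ~14–21 d; visual rating vs untreated, 0–100 (100 = complete control).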
# annual bluegrass [1] = test: Test E annual bluegrass; type: in vivo, Poa annua; conditions: Postemergence; for Plant response rating, Annual bluegras: 0 to 100 scale; for Annual bluegras plant response rating: Rate 250 g/ha, 0 to 100 scale where 0 is no effect and 100 is complete control
# Method: as §1, with “in the 1- to 4-leaf stage” for “grown for various periods of time before treatment”
# (§2) Plantings of these crops and weed species were adjusted to produce plants of appropriate size for the postemergence test. All plant species were grown using normal greenhouse practices. Crop and weed species include annual bluegrass (Poa annua), blackgrass (Alopecurus myosuroides), black nightshade (Solanum nigra), chickweed (Stellaria media), common poppy (Papaver rhoeas), deadnettle (Lamium amplexicaule), downy brome (Bromus tectorum), field violet (Viola arvensis), galium (Galium aparine), green foxtail (Setaria viridis), Italian ryegrass (Lolium multiflorum), jointed goatgrass (Aegilops cylindrica), kochia (Kochia scoparia), lambsquarters (Chenopodium album), littleseed canarygrass (Phalaris minor), rape (Brassica napus), redroot pigweed (Amaranthus retroflexus), Russian thistle (Salsola kali), scentless chamomile (Matricaria inodora), spring barley (Hordeum vulgare), sugar beet (Beta vulgaris), sunflower (Helianthus annuus), ivyleaf speedwell (Veronica hederaefolia), spring wheat (Triticum aestivum), winter wheat (Triticum aestivum), wild buckwheat (Polygonum convolvulus), wild mustard (Sinapis arvensis), wild oat (Avena fatua), windgrass (Apera spica-venti) and winter barley (Hordeum vulgare).
# (§3) Treated plants and untreated controls were maintained in a greenhouse for approximately 21 to 28 days, after which all treated plants were compared to untreated controls and visually evaluated. […] A dash response (-) means no test result.
# chickweed = test: Test E chickweed; type: in vivo, Stellaria media; conditions: Postemergence; for Plant response rating, Chickweed: 0 to 100 scale; for Chickweed plant response rating: Rate 250 g/ha, 0 to 100 scale where 0 is no effect and 100 is complete control
# Method: as §1, with “in the 1- to 4-leaf stage” for “grown for various periods of time before treatment”
# as §2, §3
# sunflower = test: Test E sunflower; type: in vivo, Helianthus annuus; conditions: Postemergence; for Plant response rating, Sunflower: 0 to 100 scale; for Sunflower plant response rating: Rate 250 g/ha, 0 to 100 scale where 0 is no effect and 100 is complete control
# Outline: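 Greenhouse test: for postemergence, foliar application at 1- to 4-leaf stage; compound in non-phytotoxic solvent with surfactant. Rating is visual, relative to untreated controls, about 21 to 28 days after treatment.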
# common pursiane = test: Test D common purslane; type: in vivo, Portulaca oleracea; conditions: Postemergence, 0 to 100 scale
# Spanishneedles = test: Test D Spanishneedles; type: in vivo, Bidens bipinnata; conditions: Postemergence, 0 to 100 scale
# annual bluegrass [2] = test: Test E annual bluegrass; type: in vivo, Poa annua; conditions: Preemergence; for Annual bluegras plant response rating (0 to 100 scale): Rate 250 g/ha
# downy brome = test: Test E downy brome; type: in vivo, Bromus tectorum; conditions: Preemergence; for Downy brome plant response rating (0 to 100 scale): Rate 250 g/ha
# redroot pigweed = test: Test E redroot pigweed; type: in vivo, Amaranthus retroflexus; conditions: Preemergence; for Redroot pigweed plant response rating (0 to 100 scale): Rate 250 g/ha
# Green foxtail [3] = test: Test D green foxtail; type: in vivo; conditions: Rate 250 g/ha; Postemergence; 0 to 100 scale
# Green foxtail [4] = test: Test D green foxtail; type: in vivo; conditions: Postemergence, 0 to 100 scale, 0 no injury, 100 complete control
# Green foxtail [5] = test: Test D green foxtail; type: in vivo; conditions: Postemergence, 0 to 100 scale, 0 no injury, 100 complete control; remark: listed apart in the source
# Green foxtail [6] = test: Test D green foxtail; type: in vivo; conditions: Postemergence, 0 to 100 scale, 0 no injury, 100 complete control; remark: listed apart in the source
# sourgrass = test: Test D sourgrass; type: in vivo, Trichachne insularis; conditions: Preemergence, 0 to 100 scale
# Outline: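 Weed seeds planted in sandy loam; species kept apart in individual pots or compartments. Preemergence tests: treatment to soil surface within one day. Greenhouse growth, then visual injury scoring at 14–21 days (0–100).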
# [7] = Rate 125 g/ha, 0 is no effect, 100 is complete control
# [8] = Rate 500 g/ha, 0 is no effect, 100 is complete control
# [9] = Rate 16 g/ha, 0 no injury, 100 complete control
# [10] = Rate 32 g/ha, 0 no injury, 100 complete control
# [11] = Rate 64 g/ha, 0 no injury, 100 complete control
# [12] = Rate 125 g/ha, 0 no injury, 100 complete control
# [13] = Rate 125 g/ha, 0 to 100 scale (0 no effect, 100 complete control)
# [14] = Rate 500 g/ha, 0 to 100 scale where 0 is no effect and 100 is complete control
compound,measurement,setting,value
CC(C)N(C(=O)n1oc(=O)n(C2CC2)c1=O)c1ccc(F)cc1 [Compound 242],Plant response rating Field bindweed,field bindweed; Rate 140 g/ha,0
same,Plant response rating Field bindweed,field bindweed; Rate 560 g/ha,0
same,Plant response rating Field bindweed,field bindweed; Rate 1120 g/ha,0
same,"Plant response rating, Johnsongrass",johnsongrass; Rate 140 g/ha,45
same,"Plant response rating, Johnsongrass",johnsongrass; Rate 280 g/ha,45
same,"Plant response rating, Johnsongrass",johnsongrass; Rate 560 g/ha,60
same,"Plant response rating, Johnsongrass",johnsongrass; Rate 1120 g/ha,90
same,"Plant response rating, Annual bluegras",annual bluegrass [1]; Rate 62 g/ha,95
same,"Plant response rating, Annual bluegras",annual bluegrass [1]; [7],20
same,Annual bluegras plant response rating,annual bluegrass [1],10
same,"Plant response rating, Annual bluegras",annual bluegrass [1]; [8],80
same,"Plant response rating, Chickweed",chickweed; Rate 62 g/ha,0
same,"Plant response rating, Chickweed",chickweed; [7],30
same,Chickweed plant response rating,chickweed,0
same,"Plant response rating, Chickweed",chickweed; [8],50
same,"Plant response rating, Sunflower",sunflower; Rate 62 g/ha,10
same,"Plant response rating, Sunflower",sunflower; [7],10
same,Sunflower plant response rating,sunflower,0
same,"Plant response rating, Sunflower",sunflower; [8],20
same,"Plant response rating, C. purslane",common pursiane; [9],0
same,"Plant response rating, C. purslane",common pursiane; [10],0
same,"Plant response rating, C. purslane",common pursiane; [11],0
same,"Plant response rating, C. purslane",common pursiane; [12],0
same,"Plant response rating, C. purslane",common pursiane; Rate 250 g/ha,0
same,"Plant response rating, Spanishneedles",Spanishneedles; [9],0
same,"Plant response rating, Spanishneedles",Spanishneedles; [10],0
same,Spanishneedles plant response rating,Spanishneedles; [11],0
same,Spanishneedles plant response rating,Spanishneedles; [12],0
same,"Plant response rating, Spanishneedles",Spanishneedles; Rate 250 g/ha,100
same,"Plant response rating, Annual bluegras",annual bluegrass [2]; [13],100
same,Annual bluegras plant response rating (0 to 100 scale),annual bluegrass [2],100
same,"Plant response rating, Annual bluegras",annual bluegrass [2]; [14],100
same,"Plant response rating, Downy brome",downy brome; [13],70
same,Downy brome plant response rating (0 to 100 scale),downy brome,100
same,"Plant response rating, Downy brome",downy brome; [14],100
same,"Plant response rating, Redroot pigweed",redroot pigweed; [13],90
same,Redroot pigweed plant response rating (0 to 100 scale),redroot pigweed,100
same,"Plant response rating, Redroot pigweed",redroot pigweed; [14],100
same,"Plant response rating, Green foxtail",Green foxtail [3],100
same,"Plant response rating, Green foxtail",Green foxtail [4]; Rate 64 g/ha,100
same,"Plant response rating, Green foxtail",Green foxtail [4]; Rate 125 g/ha,100
same,"Plant response rating, Green foxtail",Green foxtail [5]; Rate 16 g/ha,30
same,"Plant response rating, Green foxtail",Green foxtail [5]; Rate 32 g/ha,100
same,Green foxtail plant response rating,Green foxtail [6]; Rate 64 g/ha,100
same,Green foxtail plant response rating,Green foxtail [6]; Rate 125 g/ha,100
CC(C)N(C(=O)n1oc(=O)n(C)c1=O)c1ccc(F)cc1 [Compound 138],Plant response rating Field bindweed,field bindweed; Rate 140 g/ha,0
same,Plant response rating Field bindweed,field bindweed; Rate 280 g/ha,0
same,Plant response rating Field bindweed,field bindweed; Rate 560 g/ha,0
same,Plant response rating Field bindweed,field bindweed; Rate 1120 g/ha,50
same,"Plant response rating, Johnsongrass",johnsongrass; Rate 140 g/ha,0
same,"Plant response rating, Johnsongrass",johnsongrass; Rate 280 g/ha,20
same,"Plant response rating, Johnsongrass",johnsongrass; Rate 560 g/ha,60
same,"Plant response rating, Johnsongrass",johnsongrass; Rate 1120 g/ha,90
same,Plant response rating Sourgrass,sourgrass; [11],98
same,Plant response rating Sourgrass,sourgrass; [12],100
same,Plant response rating Sourgrass,sourgrass; Rate 500 g/ha,100
same,"Plant response rating, Annual bluegras",annual bluegrass [1]; Rate 125 g/ha,0
same,Annual bluegras plant response rating,annual bluegrass [1],10
same,"Plant response rating, Chickweed",chickweed; Rate 125 g/ha,0
same,Chickweed plant response rating,chickweed,0
same,"Plant response rating, Sunflower",sunflower; Rate 125 g/ha,0
same,Sunflower plant response rating,sunflower,0
same,Annual bluegras plant response rating (0 to 100 scale),annual bluegrass [2],70
same,"Plant response rating, Downy brome",downy brome; [13],90
same,Downy brome plant response rating (0 to 100 scale),downy brome,90
same,"Plant response rating, Redroot pigweed",redroot pigweed; [13],90
same,Redroot pigweed plant response rating (0 to 100 scale),redroot pigweed,90
COc1ccccc1-n1c(=O)on(C(=O)N(c2ccc(F)cc2)C(C)C)c1=O [Compound 30],Plant response rating Sourgrass,sourgrass; [11],100
CC(C)N(C(=O)n1oc(=O)n(C2CCCCCC2)c1=O)c1ccc(F)cc1F [Compound 342],"Plant response rating, C. purslane",common pursiane; [9],0
same,"Plant response rating, C. purslane",common pursiane; [10],0
same,"Plant response rating, C. purslane",common pursiane; [11],0
same,"Plant response rating, C. purslane",common pursiane; [12],0
same,"Plant response rating, C. purslane",common pursiane; Rate 250 g/ha,0
same,"Plant response rating, Spanishneedles",Spanishneedles; [9],0
same,"Plant response rating, Spanishneedles",Spanishneedles; [10],0
same,Spanishneedles plant response rating,Spanishneedles; [11],0
same,Spanishneedles plant response rating,Spanishneedles; [12],0
same,"Plant response rating, Spanishneedles",Spanishneedles; Rate 250 g/ha,0
same,"Plant response rating, Green foxtail",Green foxtail [3],100
same,"Plant response rating, Green foxtail",Green foxtail [4]; Rate 64 g/ha,0
same,"Plant response rating, Green foxtail",Green foxtail [4]; Rate 125 g/ha,60
same,"Plant response rating, Green foxtail",Green foxtail [5]; Rate 16 g/ha,0
same,"Plant response rating, Green foxtail",Green foxtail [5]; Rate 32 g/ha,0
same,Green foxtail plant response rating,Green foxtail [6]; Rate 64 g/ha,0
same,Green foxtail plant response rating,Green foxtail [6]; Rate 125 g/ha,60
